In US20230312528A1, “2-OXO-IMIDAZOLIDINE-4-CARBOXAMIDES AS NAV1.8 INHIBITORS” (Merck Sharp & Dohme LLC, priority 2020, published 2023):

Target: human NaV1.8 (Homo sapiens (Human), UniProt Q9Y5Y9)
Assay: Nav1.8 Qube automated patch-clamp assay
Format: cell-based
Conditions: human NaV1.8 stably expressed in HEK 293 cells; automated 384-well patch-clamp; resting or inactivated state not specified
Procedure: Compounds were tested on human NaV1.8 and NaV1.5 channels stably expressed in human embryo kidney (HEK) 293 cells. Sodium current measurements on Qube® were conducted as follows: automated 384-well patch-clamp assays on the Qube® platform (Sophion Biosciences) were used to measure the inhibition of sodium flow through human NaV1.8 and NaV1.5 channels. Whole-cell voltage-clamp recordings were performed in QChips® (Sophion Biosciences) at room temperature. NaV1.8 current measurements on Qube® were obtained as follows: NaV1.8 currents were elicited with a 10 second 1 Hertz (Hz) pulse train from a holding potential of −90 millivolts (mV), delivered to the cells once per minute in the control condition (DMSO only) and after compound addition. The 1 hertz pulse train stimulation consisted of ten test pulses to 10 millivolt (mV) for 20 milliseconds (ms), each of which was followed by a 980 millisecond repolarization to −67 millivolts. At the end of the 10 second pulse train stimulation, a 5 second hyperpolarization step to −100 millivolt (mV) was used to recover NaV1.8 from fast inactivation. The peak currents elicited by the 1st and 10th test pulses were used to determine IC50 values for resting inhibition and inactivated state inhibition. NaV1.5 current measurements on Qube® were obtained as follows: NaV1.5 currents were elicited with a 20 second 3 Hertz pulse train in the control condition (DMSO only) and after compound addition. The pulse train consisted of sixty 20 millisecond test pulses to 0 millivolt from a holding potential of −80 millivolt (mV). The average peak currents elicited by the last 3 test pulses were used to determine IC50 values for NaV1.5 inhibition.
The following buffers were used for the Qube® recordings: External buffer for NaV1.8 Qube® recording: 150 NaCl, 2 CaCl2, 5 KCl, 1 Mg Cl2, 10 HEPES, 12 Dextrose; External buffer for Qube® NaV1.5 recording: 120 N-Methyl-D-Glucamine, 40 NaCl, 1 KCl, 2.7 CaCl2, 5 HEPES, 0.5 MgCl2; and Internal buffer for Qube® recording: 120 CsF, 30 CsCl, 10 EGTA, 5 HEPES, 5 NaF, 2 MgCl2.
For all Qube® experiments offline analysis was used to determine percent inhibition as a function of drug concentration. IC50 values were determined by fitting to the Hill equation.

human NaV1.8, sequence (Q9Y5Y9 whole entry): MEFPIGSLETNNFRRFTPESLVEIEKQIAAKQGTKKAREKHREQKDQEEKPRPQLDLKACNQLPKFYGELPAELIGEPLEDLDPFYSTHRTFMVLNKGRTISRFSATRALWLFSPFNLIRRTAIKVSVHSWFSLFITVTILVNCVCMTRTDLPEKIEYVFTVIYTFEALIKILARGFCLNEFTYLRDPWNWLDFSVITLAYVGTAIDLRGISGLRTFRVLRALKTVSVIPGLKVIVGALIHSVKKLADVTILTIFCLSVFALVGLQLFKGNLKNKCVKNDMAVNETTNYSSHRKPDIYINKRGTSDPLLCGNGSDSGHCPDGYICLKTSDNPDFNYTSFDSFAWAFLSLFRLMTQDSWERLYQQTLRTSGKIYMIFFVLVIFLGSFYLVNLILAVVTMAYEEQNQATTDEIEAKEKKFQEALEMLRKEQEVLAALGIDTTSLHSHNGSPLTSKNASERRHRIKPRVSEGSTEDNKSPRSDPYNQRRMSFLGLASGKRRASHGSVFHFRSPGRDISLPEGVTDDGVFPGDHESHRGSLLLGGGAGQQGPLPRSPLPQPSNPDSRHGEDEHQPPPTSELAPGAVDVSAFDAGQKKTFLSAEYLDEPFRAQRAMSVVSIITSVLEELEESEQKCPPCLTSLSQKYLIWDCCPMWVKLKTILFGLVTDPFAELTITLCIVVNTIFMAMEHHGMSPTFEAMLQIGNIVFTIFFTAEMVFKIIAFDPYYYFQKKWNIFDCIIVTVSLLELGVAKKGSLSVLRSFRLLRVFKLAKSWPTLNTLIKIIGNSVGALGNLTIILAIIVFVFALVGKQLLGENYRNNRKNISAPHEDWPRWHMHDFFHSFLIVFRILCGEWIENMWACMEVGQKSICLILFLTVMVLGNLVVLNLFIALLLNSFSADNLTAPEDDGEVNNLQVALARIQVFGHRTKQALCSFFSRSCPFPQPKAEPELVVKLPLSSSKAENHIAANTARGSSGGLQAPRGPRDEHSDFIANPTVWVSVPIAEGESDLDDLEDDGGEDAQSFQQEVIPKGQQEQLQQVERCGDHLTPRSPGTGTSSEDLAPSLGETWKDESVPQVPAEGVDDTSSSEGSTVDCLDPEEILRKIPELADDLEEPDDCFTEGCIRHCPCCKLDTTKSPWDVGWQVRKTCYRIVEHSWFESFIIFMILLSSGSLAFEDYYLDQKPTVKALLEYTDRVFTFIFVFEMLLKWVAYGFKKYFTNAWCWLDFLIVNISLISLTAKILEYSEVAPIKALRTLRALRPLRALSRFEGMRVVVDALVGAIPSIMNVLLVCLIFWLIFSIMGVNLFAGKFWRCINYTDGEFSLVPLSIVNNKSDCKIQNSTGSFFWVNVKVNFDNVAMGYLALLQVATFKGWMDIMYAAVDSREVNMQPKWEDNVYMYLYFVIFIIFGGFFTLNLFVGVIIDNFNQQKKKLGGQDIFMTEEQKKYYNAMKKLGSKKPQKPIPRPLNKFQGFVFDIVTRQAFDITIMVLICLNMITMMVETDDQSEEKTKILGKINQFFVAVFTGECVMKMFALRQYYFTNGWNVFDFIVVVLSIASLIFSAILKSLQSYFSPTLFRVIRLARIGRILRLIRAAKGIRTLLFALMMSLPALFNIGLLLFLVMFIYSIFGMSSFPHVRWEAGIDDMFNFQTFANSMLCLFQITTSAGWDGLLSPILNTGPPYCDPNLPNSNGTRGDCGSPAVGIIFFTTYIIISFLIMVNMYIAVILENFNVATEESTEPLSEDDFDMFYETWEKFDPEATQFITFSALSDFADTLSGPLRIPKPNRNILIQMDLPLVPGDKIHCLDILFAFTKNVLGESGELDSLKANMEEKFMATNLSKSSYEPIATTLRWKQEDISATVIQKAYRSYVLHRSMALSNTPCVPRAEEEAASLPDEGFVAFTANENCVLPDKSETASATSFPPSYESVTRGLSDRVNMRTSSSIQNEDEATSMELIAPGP

IC50 | Compound
116 nM | O=C1NC[C@@H](C(=O)NC(c2ccc(C(F)(F)F)nc2)c2csc(C(F)(F)F)n2)N1 (mixture of isomers) [Example 19, (S)-2-oxo-N—((R and S)-(6-(trifluoromethyl)pyridin-3-yl)(2-(trifluoromethyl)thiazol-4-yl)methyl)imidazolidine-4-carboxamide]
219 nM | O=C1NC[C@@H](C(=O)NC(COc2ccc(C(F)(F)F)nc2)c2ccc(F)c(Cl)c2)N1 (mixture of isomers) [Example 53, (4S)-N-(1-(3-chloro-4-fluorophenyl)-2-((6-(trifluoromethyl)pyridin-3-yl)oxy)ethyl)-2-oxoimidazolidine-4-carboxamide]
54 nM | O=C1NC[C@@H](C(=O)NC(c2ccc(Cl)cc2)c2ccc3ncsc3c2)N1 (mixture of isomers) [Example 81, (4S)-N-(benzo[d]thiazol-6-yl(4-chlorophenyl)methyl)-2-oxoimidazolidine-4-carboxamide]
4 nM | O=C1NC[C@@H](C(=O)NC(COc2ccc(F)c(Cl)c2)c2ccc(F)c(Cl)c2)N1 (single isomer, unassigned) [Example 1A, (S)—N—((R or S)-2-(3-chloro-4-fluorophenoxy)-1-(3-chloro-4-fluorophenyl)ethyl)-2-oxoimidazolidine-4-carboxamide]
22 nM | O=C1NC[C@@H](C(=O)NC(COc2ccc(F)c(Cl)c2)c2ccc(F)c(Cl)c2)N1 (single isomer, unassigned) [Example 1B, (S)—N—((R or S)-2-(3-chloro-4-fluorophenoxy)-1-(3-chloro-4-fluorophenyl)ethyl)-2-oxoimidazolidine-4-carboxamide]
34 nM | CN1C(=O)NCC1C(=O)NC(c1ccc(Cl)cc1)c1ccc(Cl)cc1 (single isomer, unassigned) [Example 2A, (R or S)—N-(bis(4-chlorophenyl)methyl)-3-methyl-2-oxoimidazolidine-4-carboxamide]
8100 nM | CN1C(=O)NCC1C(=O)NC(c1ccc(Cl)cc1)c1ccc(Cl)cc1 (single isomer, unassigned) [Example 2B, (R or S)—N-(bis(4-chlorophenyl)methyl)-3-methyl-2-oxoimidazolidine-4-carboxamide]
9.7 nM | O=C1NC[C@@H](C(=O)NC(c2cnc(C(F)(F)F)c(Cl)c2)c2ccc(Cl)c(C(F)F)n2)N1 (single isomer, unassigned) [Example 3A, (S)—N—((R or S)-(5-chloro-6-(difluoromethyl)pyridin-2-yl)(5-chloro-6-(trifluoromethyl)pyridin-3-yl)methyl)-2-oxoimidazolidine-4-carboxamide]
2.7 nM | O=C1NC[C@@H](C(=O)NC(c2cnc(C(F)(F)F)c(Cl)c2)c2ccc(Cl)c(C(F)F)n2)N1 (single isomer, unassigned) [Example 3B, (S)—N—((R or S)-(5-chloro-6-(difluoromethyl)pyridin-2-yl)(5-chloro-6-(trifluoromethyl)pyridin-3-yl)methyl)-2-oxoimidazolidine-4-carboxamide]
203 nM | O=C1NC[C@@H](C(=O)NC(c2ccc(F)c(Cl)c2)c2cc(C(F)(F)F)[nH]n2)N1 (single isomer, unassigned) [Example 4A, (S)—N—((R or S)-(3-chloro-4-fluorophenyl)(5-(trifluoromethyl)-1H-pyrazol-3-yl)methyl)-2-oxoimidazolidine-4-carboxamide]
6.2 nM | O=C1NC[C@@H](C(=O)NC(c2ccc(F)c(Cl)c2)c2cc(C(F)(F)F)[nH]n2)N1 (single isomer, unassigned) [Example 4B, (S)—N—((R or S)-(3-chloro-4-fluorophenyl)(5-(trifluoromethyl)-1H-pyrazol-3-yl)methyl)-2-oxoimidazolidine-4-carboxamide]
1.6 nM | O=C1NC[C@@H](C(=O)NC(c2ccc(F)c(Cl)c2F)C2CCN(C3(C(F)(F)F)CC3)CC2)N1 (single isomer, unassigned) [Example 5A, (S)—N—((R or S)-(3-chloro-2,4-difluorophenyl)(1-(1-(trifluoromethyl)-cyclopropyl)piperidin-4-yl)methyl)-2-oxoimidazolidine-4-carboxamide]
74 nM | O=C1NC[C@@H](C(=O)NC(c2ccc(F)c(Cl)c2F)C2CCN(C3(C(F)(F)F)CC3)CC2)N1 (single isomer, unassigned) [Example 5B, (S)—N—((R or S)-(3-chloro-2,4-difluorophenyl)(1-(1-(trifluoromethyl)-cyclopropyl)piperidin-4-yl)methyl)-2-oxoimidazolidine-4-carboxamide]
1.1 nM | O=C1NC[C@@H](C(=O)NC(c2ccc(OC(F)(F)F)cc2)c2ccc(F)c(C(F)(F)F)n2)N1 (single isomer, unassigned) [Example 7A, (S)—N—((R or S)-(5-fluoro-6-(trifluoromethyl)pyridin-2-yl)(4-(trifluoromethoxy)phenyl)-methyl)-2-oxoimidazolidine-4-carboxamide]
44 nM | O=C1NC[C@@H](C(=O)NC(c2ccc(OC(F)(F)F)cc2)c2ccc(F)c(C(F)(F)F)n2)N1 (single isomer, unassigned) [Example 7B, (S)—N—((R or S)-(5-fluoro-6-(trifluoromethyl)pyridin-2-yl)(4-(trifluoromethoxy)phenyl)methyl)-2-oxo-imidazolidine-4-carboxamide]
1140 nM | O=C1NC[C@@H](C(=O)NC(c2ccc(F)c(Cl)c2F)[C@@H]2CC[C@@H](C(F)(F)F)CO2)N1 (single isomer, unassigned) [Example 8A, (S)—N—((R or S)-(3-chloro-2,4-difluorophenyl)((trans)-5-(trifluoromethyl)tetrahydro-2H-pyran-2-yl)methyl)-2-oxoimidazolidine-4-carboxamide]
8.4 nM | O=C1NC[C@@H](C(=O)NC(c2ccc(F)c(Cl)c2F)[C@@H]2CC[C@@H](C(F)(F)F)CO2)N1 (single isomer, unassigned) [Example 8B, (S)—N—((R or S)-(3-chloro-2,4-difluorophenyl)((trans)-5-(trifluoromethyl)tetrahydro-2H-pyran-2-yl)methyl)-2-oxoimidazolidine-4-carboxamide]
23 nM | O=C1NC[C@@H](C(=O)NC(c2ccc(F)c(Cl)c2F)[C@@H]2CC[C@@H](C(F)(F)F)CO2)N1 (single isomer, unassigned) [Example 8C, (S)—N—((R or S)-(3-chloro-2,4-difluorophenyl)((trans)-5-(trifluoromethyl)tetrahydro-2H-pyran-2-yl)methyl)-2-oxoimidazolidine-4-carboxamide]
2 nM | O=C1NC[C@@H](C(=O)NC(c2ccc(OC(F)(F)F)cc2)c2cccc(Cl)c2)N1 (single isomer, unassigned) [Example 9A, (4S)—N—((R or S)-(3-chlorophenyl)(4-(trifluoromethoxy)phenyl)methyl)-2-oxoimidazolidine-4-carboxamide]
2 nM | O=C1NC[C@@H](C(=O)NC(c2ccc(OC(F)(F)F)cc2)c2cccc(Cl)c2)N1 (single isomer, unassigned) [Example 9B, (4S)—N—((R or S)-(3-chlorophenyl)(4-(trifluoromethoxy)-phenyl)methyl)-2-oxoimidazolidine-4-carboxamide]
1070 nM | CN1CC(C(=O)NC(c2ccc(Cl)cc2)c2ccc(Cl)cc2)NC1=O (single isomer, unassigned) [Example 10A, (R or S)-N-[bis(4-chlorophenyl)methyl]-1-methyl-2-oxoimidazolidine-4-carboxamide]
